{"source": "paper PMC10041537", "about": "“Molecular origins of mutational spectra produced by the environmental carcinogen N-nitrosodimethylamine and SN1 chemotherapeutic agents” (NAR Cancer, 2023)", "key": {"C57BL/6J mice": {"system": "C57BL/6J mice", "design": "method as in PMID 9500198", "settings": "cited from earlier work"}, "gpt reporter gene": {"system": "gpt reporter gene", "assay_type": "in vivo, C57BL/6J gptΔ transgenic mice", "protocol": "(§1) Most experiments utilized C57BL/6J gptΔ transgenic mice ([49],[50]), a gift from T. Nohmi. Some experiments used RaDR^R/R;gpt^g/g;Mgmt^−/− mice, which were created by crossing RaDR^R/R;gpt^g/gmice ([37]) with Mgmt^−/− mice ([51]). NDMA was synthesized and characterized as previously described ([52]) (Fig. S1). […] The first dose (3.5 mg/kg in 10 μl) was administered at 8 days of age, and the second dose (7 mg/kg in 20 μl) was administered at 15 days of age. Vehicle treated mice were administered equivalent volumes of saline. Mice were euthanized at ten weeks post-injection by CO2 inhalation. Both male and female mice were used in all experimental groups (n = 5) in all mouse experiments.\nThe gptΔ assay is the technology traditionally used with the gptΔ mouse to probe for small mutations in the 459 bp gpt transgene, of which approximately 160 copies exist in the mouse diploid genome ([50]). The gpt gene, which is not expressed in the mammalian cells, is contained in a λ-EG10 viral cassette that can be recovered ex vivo through a lambda packaging reaction.\nThe λ-EG10 phage was packaged in vitro from genomic DNA using a Transpack packaging extract (Agilent Technologies) and then transfected into E. coli YG6020 expressing Cre-recombinase, generating a 6.4 kb plasmid carrying the gpt and chloramphenicol acetyltransferase genes. These bacteria were cultured on selective media containing chloramphenicol (25 μg/ml, Sigma-Aldrich) and 6-TG (25 μg/ml, Sigma-Aldrich) or chloramphenicol alone. 6-TG resistance was confirmed by regrowth of colonies on plates containing chloramphenicol and 6-TG. The mutant frequency of each group was calculated (ratio of total 6-TG-resistant colonies to the average of chloramphenicol resistant colonies). The samples were processed and analyzed in a blinded fashion.\nIn this study, the gptΔ assay was performed on several tissues isolated from the mouse experiments. Specifically, the liver, kidneys, and lungs were collected at ten weeks following the second NDMA injection, flash frozen in liquid nitrogen, and stored at −80°C until analysis. Genomic DNA was extracted from ∼25 mg of liver tissue, one kidney, and whole lungs using the RecoverEase DNA Isolation Kit (Agilent Technologies)."}, "liver, kidney, lung": {"system": "liver, kidney, lung", "test": "Body and organ weights, macroscopic and histological analysis 10 weeks post NDMA treatment", "assay_type": "in vivo, gptΔ C57BL/6J mice", "protocol": "as §1\nSections of kidney and liver from mice ten weeks post treatment were fixed in 10% buffered formalin, embedded in paraffin, and sectioned at 5 μm thickness, stained with hematoxylin and eosin (H&E) by the MIT Division of Comparative Medicine Comparative Pathology Laboratory. H&E-stained sections of liver and kidney were scored by a Board-certified veterinary pathologist blinded to sample identity. Sections of liver were evaluated for the presence of hepatocellular degeneration (cell swelling with cytoplasmic alteration), fibrosis, and lipidosis using distribution-based ordinal scoring: 0 = normal, 1, uncommon detection in < 5% of liver fields (200×); 2, detectable in up to 5–20% of liver fields; 3, detectable in up to 20–65% of liver fields; 4, detectable in >65% of liver fields. The following criteria were used for scoring hepatic inflammation, necrosis, nuclear enlargement (karyomegaly), extramedullary hematopoiesis, Kupffer cell hyperplasia, Ito cell hyperplasia, and bile duct hyperplasia: 0 = normal; 1 = minimal (1–5 foci), 2 = mild (6–12 foci), 3 = moderate (13–18 foci), 4 = severe (>18 foci) (adapted from ([54])). A total inflammation score for each liver was generated by combining individual scores of portal, midzonal, and centrilobular inflammation from each submitted section. Sections of kidney were evaluated for the presence of inflammation, glomerulonephropathy, tubular necrosis, tubular degeneration, tubular regeneration, tubular casts and interstitial fibrosis. Slides were examined using an Olympus BX41 microscope attached with an iKona digital camera and photographed."}, "[1]": {"settings": "C57BL/6J male mice, neonatal model"}}, "note": "Several values for one entry are separate records, joined by “and”; a condition that tells them apart may be missing. Identical values can stand only once.", "data": [{"smiles": "CN(C)N=O", "note": "[NDMA, N-nitrosodimethylamine]", "values": [{"measurement": "incidence of hepatic tumors", "setting": "C57BL/6J mice; [1]", "result": "~80", "unit": "%"}, {"measurement": "incidence of lung tumors", "setting": "C57BL/6J mice; [1]", "result": 7, "unit": "%"}, {"measurement": "maximum tolerated dose", "setting": "C57BL/6J mice; total dose, i.p., neonatal mice", "result": 10.5, "unit": "mg/kg"}, {"measurement": "elevated mutation frequency, kidney", "setting": "gpt reporter gene; kidney, 10 weeks after neonatal NDMA 10.5 mg/kg total i.p., vs controls", "result": "~2", "unit": "fold"}, {"measurement": "change in mutant frequencies, kidney, males and females", "setting": "gpt reporter gene; kidneys vs controls, only males significantly increased (P = 0.0079)", "result": "approximate doubling"}, {"measurement": "elevated mutation frequency, liver", "setting": "gpt reporter gene; liver, 10 weeks after neonatal NDMA 10.5 mg/kg total i.p., vs controls", "result": "~35", "unit": "fold"}, {"measurement": "increase in mutant frequency, liver, females", "setting": "gpt reporter gene; livers of females vs controls, 10 weeks post-exposure, P = 0.0079", "result": "~45", "unit": "fold"}, {"measurement": "increase in mutant frequency, liver, males", "setting": "gpt reporter gene; livers of males vs controls, 10 weeks post-exposure, P = 0.0079", "result": "~30", "unit": "fold"}, {"measurement": "elevated mutation frequency, lung", "setting": "gpt reporter gene; lung, 10 weeks after neonatal NDMA 10.5 mg/kg total i.p., vs controls", "result": "~4 fold and > 4 fold"}, {"measurement": "macroscopic changes in organs", "setting": "liver, kidney, lung; 10 weeks post treatment", "result": "not observed"}, {"measurement": "liver histology: hepatocellular degeneration", "setting": "liver, kidney, lung; H&E, P = 0.0079", "result": "multifocal areas of periacinar (centrilobular to midzonal) hepatocellular degeneration"}, {"measurement": "liver histology: nuclear enlargement", "setting": "liver, kidney, lung; H&E, P = 0.0079", "result": "karyomegaly"}, {"measurement": "body weights vs vehicle controls", "setting": "liver, kidney, lung; at euthanasia, 10 weeks post treatment", "result": "no difference"}, {"measurement": "lung-to-body weight ratio", "setting": "liver, kidney, lung; females", "result": "increased"}, {"measurement": "kidney-to-body weight ratio", "setting": "liver, kidney, lung; males", "result": "increased"}, {"measurement": "liver-to-body weight ratio", "setting": "liver, kidney, lung; males", "result": "decreased significantly"}]}]}
